ChEMBL document CHEMBL2021770, “Potent and Selective Inhibitors of Long Chain l-2-Hydroxy Acid Oxidase Reduced Blood Pressure in DOCA Salt-Treated Rats” (ACS Med Chem Lett, 2011)
Activity calls are given as the source filed them. The rule behind the calls is not given here.

How the values were obtained:
2-Hydroxyacid oxidase 2 = molecular target: T1, 2-Hydroxyacid oxidase 2 (Rattus norvegicus, UniProt Q07523); assay: Inhibition of rat His6-tagged Hao2 expressed in Escherichia coli BL21/DE3 using 2-hydroxyoctanoic acid as substrate measured every 10 secs by spectrophotometry
T1 sequence (Q07523 whole entry): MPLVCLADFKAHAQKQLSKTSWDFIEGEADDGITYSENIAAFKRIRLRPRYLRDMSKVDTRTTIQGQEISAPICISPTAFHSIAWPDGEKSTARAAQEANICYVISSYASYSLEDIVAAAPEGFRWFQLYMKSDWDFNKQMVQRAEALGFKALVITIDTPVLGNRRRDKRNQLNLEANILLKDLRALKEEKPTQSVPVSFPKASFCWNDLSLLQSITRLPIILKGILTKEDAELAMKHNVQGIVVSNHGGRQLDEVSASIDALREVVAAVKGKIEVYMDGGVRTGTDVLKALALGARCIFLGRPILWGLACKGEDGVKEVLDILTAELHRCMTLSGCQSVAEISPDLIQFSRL

Rattus norvegicus = assay: Antihypertensive activity in DOCA-salt treated Wistar rat assessed as decrease in systolic blood pressure at 10 mg/kg, po bid administered 29 days after DOCA-salt-challenge for 15 days 12 to 15 hrs post-last dose by plethysmography; assay type: functional, organism-based; design: dose 10 mg/kg; conditions: Artery

| Compound | IC50 (2-Hydroxyacid oxidase 2) [nM] | Activity (Rattus norvegicus) |
| --- | --- | --- |
| Cc1[nH]nc(C(=O)O)c1CCc1ccc(-c2ccccc2)cc1 | 910 |  |
| Cc1[nH]nc(C(=O)O)c1CCc1ccccc1 | 4270 |  |
| CC(C)NCC(O)COc1ccc(CC(N)=O)cc1 (stereo not drawn) |  | Active |
